Test results from patent publication US8835403B2, “Algin oligosaccharides and the derivatives thereof as well as the manufacture and the use of the same” (priority 2004, dated 2014).

How the values were obtained:
Aβ1-40 [1] = molecular target: T1, Aβ1-40 (Homo sapiens, UniProt P05067); test: Fibril formation of Aβ1-40, Th-T fluorescence; type: biochemical; conditions: 24 h
Protocol: Fresh Aβ1-40 is incubated alone or with 6-mer (final concentration of 10, 50, and 100 μg/ml, respectively) at 37° C. for 24 h. After incubation, Th-T is added and fluorescence intensity is monitored at […].

Aβ = Aβ (Homo sapiens, UniProt P05067); test: Binding site of 6-mer on Aβ (further studies)
SH-SY5Y cells = test: Apoptosis of SH-SY5Y induced by Aβ25-35 (propidium iodide flow cytometry); type: cell-based; conditions: 30 μM aged Aβ25-35 48 h, Aβ alone 24.8±1.9%
Protocol: SH-SY5Y cells are incubated in 6-well plates at a density of 2×10^5 cells per well. The day after plating, cells are pretreated with varying concentrations (0, 50, 100 μg/ml) of 6-mer for 24 h, followed by the addition of 30 μM aged Aβ25-35 (purchased from Sigma. Co.). After 48 h at 37° C., cells are digested, collected, washed, centrifuged at 1200 rpm and incubated with […] of a mixture of 5 mg/ml propidium iodide (Hyclone Co.) and 100 U/ml RNase (Hyclone Co.). Then the cells are measured by flow cytometry (BD Co., US), with 8000 cells per sample

[2] = tested on: human pancreatic beta-cells cell line NIT; test: Protection of pancreatic beta-cell line NIT impaired by amylin (MTT); type: cell-based; conditions: 6-mer 10, 50, 100 μg/ml 24 h pretreatment, 30 μM aged amylin 48 h (FIG. 12)
Protocol: The human pancreatic beta-cells cell line NIT is cultured with DMEM medium containing 10% FBS. The cells are incubateded into 96-well plates in density of 1×10^4 cells/well. The day after plating, they are pretreated with varying concentrations of 6-mer (final concentration of 0, 10, 50, 100 μg/ml) for 24 h, followed by the addition of aged amylin with a final concentration of 30 μM. After 48 h at 37° C., the survival of the cells is measured by MTT method.

Na+, K+-ATPase = Na+, K+-ATPase activity in cerebral cortex and hippocampus of Aβ1-40-induced AD mice; type: in vivo
Protocol: Following the behavioral test, rats are decapitated. Cerebral cortex and hippocampus are dissected on ice immediately, and stored at −80° C. after quick freezing in liquid nitrogen for 1 hour. MDA, SOD, GSH-PX, Na^+, K^+-ATPase, AchE and CHAT activities in the brain regions are determined using the respective kits. The homogenates of cerebral cortex and hippocampus are prepared with saline with a final concentration of 10% and 5%. The supernatant were obtained after centrifuging at 3600 rpm to test MDA, CuZn-SOD, GSH-PX, Na^+K^+-ATPase, AchE, and CHAT activities. The activity of ChAT is determined with isotope-labeled method. The other indexes and amount of total proteins are tested with the respective kits supplied by Nanjing Jiancheng Bioengineering Institute.

SOD = SOD activity of cerebral cortex and hippocampus of Aβ1-40-induced AD mice; type: in vivo
ChAT = test: Cerebral cortex ChAT activity of Aβ1-40-induced AD mice; type: in vivo
[3] = tested on: diabetic mice induced by STZ; test: Blood glucose of diabetic mice induced by streptozotocin (STZ); type: in vivo; conditions: blood on 11th day, STZ 150 mg/kg i.p.
Protocol: Sixty male NIH mice (weighed 18-22 g) are randomly divided to control, model, 50, 150, 450 mg/kg 6-mer-treated and 5 mg/kg dimethyldiguanide-treated groups. The mice are injected intraperitoneally with 150 mg/kg STZ except control group at the 1st day. Then the mice are given accordingly drugs consecutively for 10 days and eyeballs are picked out to extract blood on the 11th day. The blood is taken to measure the glucose concentration.

Aβ1-40 fibril = Aβ1-40 fibril (Homo sapiens, UniProt P05067); test: Destability of preformed Aβ1-40 fibril (TEM); type: biochemical; conditions: Aβ1-40 aged 7 d, then 6-mer for additional 3 days (FIG. 10C)
Aβ1-40 fibril, sequence (P05067 672-711 limits assumed): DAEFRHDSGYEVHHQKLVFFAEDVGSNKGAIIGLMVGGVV
Protocol: 1 mg/ml of distilled water-resolved Aβ1-40 is aged at 37° C. for 7d, after which it is exposed to 6-mer for 3 days.

Aβ1-40 [4] = molecular target: T1, Aβ1-40; test: Fibril formation of Aβ1-40 studied with TEM; type: biochemical

T1 sequence (P05067 672-711 limits assumed): as above

SMILES: O=C(O)C1OC(OC2C(C(=O)O)OC(OC3C(C(=O)O)OC(OC4C(C(=O)O)OC(OC5C(C(=O)O)OC(OC6C(C(=O)O)OC(O)C(O)C6O)C(O)C5O)C(O)C4O)C(O)C3O)C(O)C2O)C(O)C(O)C1O (stereo not shown) [6-mer, mannuronic hexasaccharide]
- Th-T fluorescence intensity (Aβ1-40 [1]; 10 μg/ml 6-mer with fresh Aβ1-40, 37° C.): 10.46±0.94
- Th-T fluorescence intensity (Aβ1-40 [1]; 50 μg/ml 6-mer with fresh Aβ1-40, 37° C.): 9.18±1.32
- Th-T fluorescence intensity (Aβ1-40 [1]; 100 μg/ml 6-mer with fresh Aβ1-40, 37° C.): 7.81±1.38
- binding site on Aβ25-35 (Aβ): Ser26˜Lys28
- percentage of hypodiploid cells (SH-SY5Y cells; 50 μg/ml 6-mer 24 h pretreatment): 10.2±1.3%
- percentage of hypodiploid cells (SH-SY5Y cells; 100 μg/ml 6-mer 24 h pretreatment): 5.1±0.7%
- survived cells impaired by amylin [2]: increase the survived cells impaired by amylin in a dose-dependent manner
- ATPase activity (μmol Pi/mg prot./hour) cerebral cortex (Na+, K+-ATPase; 15 mg/kg): 1.08 ± 0.06 μmol Pi/mg prot./hour
- ATPase activity (μmol Pi/mg prot./hour) cerebral cortex (Na+, K+-ATPase; 30 mg/kg): 1.09 ± 0.08 μmol Pi/mg prot./hour
- ATPase activity (μmol Pi/mg prot./hour) cerebral cortex (Na+, K+-ATPase; 60 mg/kg): 1.08 ± 0.05 μmol Pi/mg prot./hour
- ATPase activity (μmol Pi/mg prot./hour) hippocampus (Na+, K+-ATPase; 15 mg/kg): 2.10 ± 0.29 μmol Pi/mg prot./hour
- ATPase activity (μmol Pi/mg prot./hour) hippocampus (Na+, K+-ATPase; 30 mg/kg): 2.07 ± 0.23 μmol Pi/mg prot./hour
- ATPase activity (μmol Pi/mg prot./hour) hippocampus (Na+, K+-ATPase; 60 mg/kg): 2.52 ± 0.25 μmol Pi/mg prot./hour
- SOD activity (NU/mg prot.) cerebral cortex (SOD; 15 mg/kg): 49.35 ± 2.27 NU/mg prot.
- SOD activity (NU/mg prot.) cerebral cortex (SOD; 30 mg/kg): 51.84 ± 2.07 NU/mg prot.
- SOD activity (NU/mg prot.) cerebral cortex (SOD; 60 mg/kg): 57.50 ± 2.51 NU/mg prot.
- SOD activity (NU/mg prot.) hippocampus (SOD; 15 mg/kg): 69.76 ± 6.12 NU/mg prot.
- SOD activity (NU/mg prot.) hippocampus (SOD; 30 mg/kg): 61.72 ± 4.27 NU/mg prot.
- SOD activity (NU/mg prot.) hippocampus (SOD; 60 mg/kg): 79.97 ± 7.34 NU/mg prot.
- ChAT activity (pmol/mg prot./min) (ChAT; 15 mg/kg): 90.94 ± 3.77 pmol/mg prot./min
- ChAT activity (pmol/mg prot./min) (ChAT; 30 mg/kg): 99.98 ± 5.07 pmol/mg prot./min
- ChAT activity (pmol/mg prot./min) (ChAT; 60 mg/kg): 94.69 ± 5.83 pmol/mg prot./min
- Blood glucose concentration ([3]; 50 mg/kg for 10 days): 219.4 ± 67.8 mg/dL
- Blood glucose concentration ([3]; 150 mg/kg for 10 days): 179.6 ± 69.8 mg/dL
- Blood glucose concentration ([3]; 450 mg/kg for 10 days): 162.5 ± 3 mg/dL
- effect on preformed Aβ1-40 fibers (TEM) (Aβ1-40 fibril): turned into small irregular short fibers
- fibril formation of Aβ1-40 (TEM) (Aβ1-40 [4]; incubation 24 h and 48 h (FIG. 9)): significantly inhibit the fibril formation of Aβ1-40
- fibril formation of Aβ1-40 facilitated by heparin (TEM) (Aβ1-40 [4]; with heparin, 24 h and 48 h (FIG. 9)): significant inhibitory effect
